We go through two compounds from US9505786B2, “Substituted annulated triazines and use thereof” (BAYER INTELLECTUAL PROPERTY GMBH, priority 2012, dated 2016).

The subject of one experiment is aorta rings. In words: Vasorelaxant effect in vitro (phenylephrine-contracted aorta rings). The conditions noted are these: Oryctolagus cuniculus, rabbit aorta rings, organ bath, phenylephrine contraction; read-out: IC50 (concentration needed to reduce the phenylephrine contraction by 50%). In short, it runs like this: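 Rabbit aortic rings 1.5 mm wide were held under tension in carbogen-gassed Krebs-Henseleit at 37° C and contracted with cumulative phenylephrine. Compound was added at rising doses in successive runs (0.1% DMSO), and each contraction was compared with the preceding run. IC50 is the concentration halving the control contraction.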

Experiment [1] relates to recombinant guanylate cyclase reporter cell line. In words: Effect on a recombinant guanylate cyclase reporter cell line. The format is cell-based. As for the experimental part:
B-2. Effect on a Recombinant Guanylate Cyclase Reporter Cell Line
The cellular activity of the compounds according to the invention is determined using a recombinant guanylate cyclase reporter cell line, as described in F. Wunder et al., Anal. Biochem. 339, 104-112 (2005).

Experiment [2] deals with human phosphodiesterase 5 (PDE 5) (Homo sapiens (Human), UniProt O76074). In words: Inhibition of human phosphodiesterase 5 (PDE 5), SPA assay. Type of experiment: biochemical. To be noted: PDE 5 preparation from human platelets, [8-3H] cGMP substrate. In short, it runs like this: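 Enzyme partially purified from human platelets by Mono Q chromatography; [8-3H]cGMP substrate (0.025 μCi per well), enzyme diluted to keep conversion below 70%. Compounds 4 μM to 0.0018 μM final, 60 min at room temperature in Tris pH 7.5/MgCl2/EDTA; yttrium SPA bead read-out; IC50 from concentration–inhibition plot.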

As to `CCOc1ccc(-c2nc(-c3nn(Cc4ccccc4F)c4ncccc34)nc3c2C(C)(C)C(=O)N3)cn1` [Example 14, 4-(6-Ethoxypyridin-3-yl)-2-[1-(2-fluorobenzyl)-1H-pyrazolo[3,4-b]pyridin-3-yl]-5,5-dimethyl-5,7-dihydro-6H-pyrrolo[2,3-d]pyrimidin-6-one], the IC50 with aorta rings turned out to be 420 nM; in experiment [2] it was 2000 nM. In experiment [1], the “MEC (minimum effective concentration)” value is 300 nM.
On to `CC1(COCc2ccccc2)C(=O)Nc2nc(-c3nn(Cc4ccccc4F)c4ncc(F)cc34)nnc21` (racemic) [Example 6, 7-[(Benzyloxy)methyl]-3-[5-fluoro-1-(2-fluorobenzyl)-1H-pyrazolo[3,4-b]pyridin-3-yl]-7-methyl-5,7-dihydro-6H-pyrrolo[2,3-e][1,2,4]triazin-6-one (racemate)], for which the IC50 in the experiment on aorta rings turned out to be 246 nM; in experiment [2], 1100 nM. Moreover, in experiment [1], the “MEC (minimum effective concentration)” value was determined as 100 nM.
